Entries after “also recorded” stand apart in the source; their conditions may differ.
How the values were obtained:
CD-1 or c57BL/6J mice = experiment: In vivo IVIS analysis of FLuc circRNA LNPs (whole body and ex vivo organs); conditions: for spleen to liver ratios: ex vivo IVIS analysis of tissues
Description: (§1) Lipid Nanoparticles (LNPs) were formed using a Precision Nanosystems Ignite instrument with a ‘NextGen’ mixing chamber. […] A 3:1 aqueous to ethanol mixing ratio was used. The formulated LNP then were dialyzed in 1 L of water and exchanged 2 times over 18 hours. Dialyzed LNPs were filtered using 0.2 µm filter. Prior to in vivo dosing, LNPs were diluted in PBS. LNP sizes were determined by dynamic light scattering. A cuvette with 1 mL of 20 μg/mL LNPs in PBS (pH 7.4) was measured for Z-average using the Malvern Panalytical Zetasizer Pro. The Z-average and polydispersity index were recorded.
as §1, with “formulated LNPs were” for “formulated LNP”, “then” for “then were”
as §1, with “formulated LNPs were” for “formulated LNP”, “then” for “then were”, “of 1×PBS” for “of water”
Female CD-1 or female c57BL/6J mice ranging from 22-25 g were dosed at 0.5 mg/kg RNA intravenously. Six hours after injection, mice were injected intraperitoneally with 200 μL of D-luciferin at 15 mg/mL concentration. 5 minutes after injection, mice were anesthetized using isoflurane, and placed inside the IVIS Spectrum In Vivo Imaging System (Perkin Elmer) with dorsal side up. Post 10 minutes injection, mice were scanned for luminescence. Mice were euthanized and organs were extracted within 25 minutes of luciferin injection to scan for luminescence in liver, spleen, kidneys, lungs, and heart. Images (FIGS. 33A-B, 34A-B, 35A-B) were analyzed using Living Images (Perkin Elmer) software. Regions of interest were drawn to obtain flux and average radiance and analyzed for biodistribution of protein expression (FIG. 32A-B).

splenic immune cells = experiment: In vivo Cre circRNA LNP transfection in Ai9 Cre reporter mice, tdTomato+ splenic immune cells; conditions: 0.5 mg/kg RNA intravenously, 48 hr
Description: Circular RNAs encoding Cre recombinase (Cre) are encapsulated into lipid nanoparticles as previously described. Female, 6-8 week old B6.Cg-Gt(ROSA)26Sortm9(CAG-tdTomato)Hze/J (Ai9) mice were dosed with lipid nanoparticles at 0.5 mg/kg RNA intravenously. Fluorescent tdTomato protein was transcribed and translated in Ai9 mice upon Cre recombination, meaning circular RNAs have been delivered to and translated in tdTomato+ cells. After 48 hr, mice were euthanized and the spleens were harvested, processed into a single cell suspension, and stained with various fluorophore-conjugated antibodies for immunophenotyping via flow cytometry.
Ai9 mice injected with PBS represented background tdTomato fluorescence.
FIG. 45C illustrates the proportion of additional splenic immune cell populations expressing tdTomato with Lipids 10a-27 and 10a-26 (mean+std. dev., n=3), which also include NK cells (NKp46+, TCR-B−), classical monocytes (CD11b+, Ly-6G−, Ly-6C_hi), nonclassical monocytes (CD11b+, Ly-6G−, Ly-6C_lo), neutrophils (CD11b+, Ly-6G+), and dendritic cells (CD11c+, MHC-II+).
Ai9 mice (B6.Cg-Gt(ROSA)26Sortm9(CAG-tdTomato)Hze/J, female, 6-8 weeks, n=3 per group) were injected i.v. with 0.5 mg/kg Cre circRNA LNPs or PBS. Ai9 mice transcribe and translate the fluorescent reporter tdTomato upon Cre recombination; meaning cells which are tdTomato+ have successfully been transfected with Cre circRNA. After 48 hours, mice were euthanized and their spleens were collected and manually processed into single cell suspensions. The splenocytes were stained for dead cells (LiveDead Fixable Aqua, Thermo) and with anti-mouse antibodies (TCR-B chain, BV421, H57-597; CD45, BV711, 30-F11; CD11b, BV785, ICRF44; NKp46, AF647, 29A1.4; CD19, APC/750, 6D5; TruStain FcX, 93; all antibodies from Biolegend) at 1:200 ratio. Flow cytometry was performed using an Attune Nxt Flow Cytometer (Thermo).

primary human T cells = experiment: LNP transfection of primary human activated T cells with FLuc circRNA with or without ApoE3; assay type: cell-based; conditions: 4 independent donors
Description: Primary human T cells from independent donors were stimulated with aCD3/aCD28 and allowed to proliferate for 6 days in the presence of human serum and IL-2. Then, 100,000 cells were plated in a 96 well plate and LNPs containing circRNA coding for Firefly Luciferase (FLuc) were added to the cells at 200 ng RNA/well with or without Apolipoprotein E3 (ApoE3). After 24-hour incubation, luminescence was quantified using the Bright-Glo Luciferase Assay System (Promega) according to manufacturer's instructions and background luminescence from cells not treated with LNPs was subtracted. […] (See Example 70 for LNP formulation procesure, e.g., for 10a-27 (5.7A), 10a-26 (5.7A), 10a-27 (4.5D), and 10a-26 (4.5D) LNPs.)

Compound | spleen to liver ratios (CD-1 or c57BL/6J mice) | delivery of circular RNAs to splenic immune cell subsets (splenic immune cells) | further results
CCCCCCCCCOC(=O)CCCCCCCN(CCCCCCCC(=O)OC(CCCCCCCC)CCCCCCCC)CCCn1ccnc1 [Lipid 10a-53, heptadecan-9-yl 8-((3-(1H-imidazol-1-yl)propyl)(8-(nonyloxy)-8-oxooctyl)amino)octanoate] | maintaining the desired spleen to liver ratios | – | –
CCCCCCCCC(CCCCCC)C(=O)OCCCCCCN(CCCCCCOC(=O)C(CCCCCC)CCCCCCCC)CCCn1ccnc1 (stereo not drawn) [Lipid 10a-26, ((3-(1H-imidazol-1-yl)propyl)azanediyl)bis(hexane-6,1-diyl) bis(2-hexyldecanoate)] | maintaining the desired spleen to liver ratios | effective at delivering circular RNAs to many splenic immune cell subsets | ex vivo IVIS analysis of tissues, overall expression (CD-1 or c57BL/6J mice; 0.5 mg/kg RNA intravenously): increased overall expression; whole-body total flux (CD-1 or c57BL/6J mice; 0.5 mg/kg RNA intravenously, six hours, compared to LNPs made with lipids 22-S14 and 93-S14): increased whole-body total flux; proportion of splenic immune cells expressing tdTomato (transfection) (splenic immune cells): significantly higher myeloid and T cell transfection
CCCCCCCCCOC(=O)CCCCCCCN(CCO)CCCCCCCC(=O)OC(CCCCCCCC)CCCCCCCC [Lipid 10b-15] | maintaining the desired spleen to liver ratios | effective at delivering circular RNAs to many splenic immune cell subsets | –
CCCCCCCCCOC(=O)CCCCCCCN(CCCCCCCC(=O)OC(CCCCCCCC)CCCCCCCC)CCCn1ccnc1C [Lipid 10a-54, heptadecan-9-yl 8-((3-(2-methyl-1H-imidazol-1-yl)propyl)(8-(nonyloxy)-8-oxooctyl)amino)octanoate] | maintaining the desired spleen to liver ratios | – | –
CCCCCCCCC(CCCCCC)C(=O)OCCCCCCN(CCCCCCOC(=O)C(CCCCCC)CCCCCCCC)CCCn1ccnc1C (stereo not drawn) [Lipid 10a-27, ((3-(2-methyl-1H-imidazol-1-yl)propyl)azanediyl)bis(hexane-6,1-diyl) bis(2-hexyldecanoate)] | – | effective at delivering circular RNAs to many splenic immune cell subsets | proportion of splenic immune cells expressing tdTomato (transfection) (splenic immune cells; 0.5 mg/kg): significantly higher myeloid and T cell transfection; also recorded: transfect significantly more splenic immune cells; Firefly luminescence (primary human T cells): generally produced higher luminescence
